Reference: US7763654B2, “Crystal polymorph of hydroxynorephedrin derivative hydrochloride” (Kissei Pharmaceutical Co., Ltd., priority 2005, dated 2010)

What was measured:
[1] = Stability Test 1 (60° C.), storage for a week; HPLC, powder X-ray diffraction, appearance; format: physicochemical; details: for residual percentage (chemical purity %): HPLC; for crystal form: powder X-ray diffraction
Procedure: (§1) The powder X-ray diffraction data of each crystal polymorph were measured by X-ray diffractometer RINT 2100 ultima+manufactured by Rigaku Denki Corporation (measuring conditions; CuK α rays, 40 kV in X-ray tube voltage, 40 mA in X-ray tube current). The 2θ value of diffraction pattern by the powder X-ray diffractometry may deviate in some cases by a factor of about 0.5° depending on the sample conditions and measuring conditions. In addition, due to the properties of data, a total diffraction pattern of the powder X-ray diffractometry is important for the identification of crystals. The TG/DTA measurements of each crystal polymorph were conducted by thermogravimetry analyzer (TG/DTA) ThermoPlus 2 series TG8120 manufactured by Rigaku Denki Corporation (measuring conditions; temperature rising rate 10° C./minutes, samplepan (Al), reference (Al2O3), under a nitrogen atmosphere). Melting points of each crystal were searched from differential thermal analysis (DTA) endothermic peak (extrapolation). The solid state C^13-NMR spectrums of each crystal polymorph were measured by AVANCE/DRX500 manufactured by Bruker (measuring conditions; accumulated counts 512 times, contact time 3 msec, repeated time 5 sec, probe 4 mm MAS, observed frequency 125.77 Mhz, spinning rate 10000 Hz).
After ethyl (−)-2-[4-[2-[[(1S,2R)-2-hydroxy-2-(4-hydroxyphenyl)-1-methylethyl]amino]ethyl]-2,5-dimethylphenoxy]-acetate hydrochloride obtained in Example 1 was stored at 60° C. for a week, chemical stability was determined by measuring the residual percentage of ethyl (−)-2-[4-[2-[[(1S,2R)-2-hydroxy-2-(4-hydroxylphenyl)-1-methylethyl]amino]ethyl]-2,5-dimethylphenoxy]acetate hydrochloride by HPLC and polymorphic stability was examined by the powder X-ray diffraction measurement.

[2] = Stability Test 2 (140° C.), heating, powder X-ray diffraction; format: physicochemical; details: after heating to 140° C.
Procedure: as §1, with “Hz). […]” for “Hz).”

[3] = after 1 week storage at 60° C., hydrochloride
[4] = after 1 week storage at 60° C., listed as crystal form C, hydrochloride

With `CCOC(=O)COc1cc(C)c(CCN[C@@H](C)[C@H](O)c2ccc(O)cc2)cc1C.Cl` [crystalline form C, ethyl (−)-2-[4-[2-[[(1S,2R)-2-hydroxy-2-(4-hydroxyphenyl)-1-methylethyl]amino]ethyl]-2,5-dimethylphenoxy]-acetate hydrochloride] the “residual percentage (chemical purity %)” value [1, 3] was “constant”, the “residual percentage (chemical purity %)” value [1, 4] was 99.6% and the appearance [1, 3] was “no change in appearance”. For the same molecule, the appearance [1, 4] was “white”, the crystal form [1, 3] was “polymorphic transformation did not occur” and the crystal form [1, 4] was “crystal form C”. The appearance ([1]; at start) was “white”, the “residual percentage (chemical purity %)” value ([1]; at start) was 99.6% and the crystal form ([1]; at start) was “crystal form C”. The “change of the crystalline form” value [2] was “still crystalline form C”.
